Our source for the IC50 and MIC values is ChEMBL document CHEMBL4184130, “Zamamidine D, a Manzamine Alkaloid from an Okinawan Amphimedon sp. Marine Sponge” (J Nat Prod, 2017).

In brackets after ≈: the same amount, converted by molar mass.

For one assay, the system named is Candida albicans. Put plainly: Antimicrobial activity against Candida albicans IFM62680 incubated for 72 hrs. As to conditions: IFM62680, 72 h. In kind it is functional, organism-based.
For assay [1], the system named is Trichophyton mentagrophytes. The assay is described as follows: Antimicrobial activity against Trichophyton mentagrophytes IFM62679 incubated for 72 hrs. In kind it is functional, organism-based. As to conditions: IFM62679, 72 h.
The next assay deals with Escherichia coli. Put plainly: Antimicrobial activity against Escherichia coli ATCC 25922 incubated for 72 hrs. In kind it is functional. The note with it: ATCC 25922, 72 h.
A further assay relates to Cryptococcus neoformans. The assay is described as follows: Antimicrobial activity against Cryptococcus neoformans IFM62681 incubated for 72 hrs. Format: functional, organism-based. As to conditions: IFM62681, 72 h.
The next assay has as its system Micrococcus luteus. The assay is described as follows: Antimicrobial activity against Micrococcus luteus IFM2066 incubated for 72 hrs. Format: functional. As to conditions: IFM2066, 72 h.
In a further assay the test system is Aspergillus niger. The assay is described as follows: Antimicrobial activity against Aspergillus niger IFM62678 incubated for 72 hrs. The note with it: IFM62678, 72 h. Format: functional, organism-based.
The test system of the next assay is Bacillus subtilis. Put plainly: Antimicrobial activity against Bacillus subtilis PC1219 incubated for 72 hrs. In kind it is functional. As to conditions: PC1219, 72 h.
Another assay relates to Staphylococcus aureus. The assay is described as follows: Antimicrobial activity against Staphylococcus aureus 209P incubated for 72 hrs. In kind it is functional.

For orientation: IC50 means the point on the concentration scale where inhibition reaches its midpoint. A lower IC50 goes with greater potency in that assay. One may read the MIC as the lowest concentration found to suppress growth. A high value points to a less susceptible organism.

Consider `NCCc1c(C(C2=C[C@@]3(O)CC/C=C\CCCCN4CC[C@@H]2[C@]2(C[C@@H]5/C=C\CCCCN5[C@H]23)C4)c2[nH]c3ccccc3c2CCN)[nH]c2ccccc12`, for which the IC50 in the assay on Candida albicans is 16 µg/mL (≈ 22.4 µM); in assay [1], 8 µg/mL (≈ 11.2 µM); in the assay with Cryptococcus neoformans, 2 µg/mL (≈ 2.8 µM); with Aspergillus niger it was 16 µg/mL (≈ 22.4 µM). Also, the MIC in the assay on Escherichia coli stood at 32 µg/mL (≈ 44.9 µM); in the assay on Micrococcus luteus, 8 µg/mL (≈ 11.2 µM); against Bacillus subtilis it was 8 µg/mL (≈ 11.2 µM); against Staphylococcus aureus, 8 µg/mL (≈ 11.2 µM).
